Data published in patent US20110288042A1, “STABLE HIGHLY PURE AZACITIDINE AND PREPARATION METHODS THEREFOR” (CHEMAGIS LTD., priority 2007, published 2011).
Read-outs that look alike come from different tables or passages of the source.

How the values were obtained:
[1] = Induced degradation of 5-azacytidine in solid state (observation, FT-IR, HPLC); type: physicochemical; details: for Area (%) at RRT 1.00 (5-azacytidine) / Area (%) of peak at RRT 0.63 / Area (%) of peak at RRT 2.01 / Area (%) of peak at RRT 2.05 / Total impurities (%): solid
Procedure: (§1) The HPLC measurements were performed using a system equipped with an Inertsil C18 column (ODS-2, 5 microns, 250×4.6 mm (ODS-167)). Other parameters of the system were as follows: • Detection: UV detector operated on 242 nm • Column temperature: 20° C. • Run time: 45 minutes • Injection volume: 10 μl • Flow rate: 1.0 ml/minute • Sample set temperature: 5° C. • Sample concentration: about 1.65 mg/ml • Diluent: Mixture of 30% 10 mM ammonium acetate and 70% THF
(§2) Analyses were performed using the following mobile phase • Mobile Phase (Eluent) A: 10 mM ammonium acetate • Mobile Phase (Eluent) B: 60% 10 mM ammonium acetate, 40% MeOH
The sample was placed in a UV chamber and exposed to UV light for 48 hours. • Accelerated conditions [40±2° C./75±5% Relative Humidity (RH)].
At the end of the stipulated time period, the physical descriptions of each sample were noted down. Identification tests were performed by FT-IR, and purity checks were performed by HPLC analysis. The protected sample, as defined herein, is the reference storage material used for carrying out the experiments detailed in Tables 7 and 8.

[2] = Induced degradation of 5-azacytidine in liquid state (HPLC); type: physicochemical
Procedure: as §1, §2
Acidic hydrolysis—blank preparation: Hydrochloric acid (5 ml, 0.01M HCl) was diluted to 10 ml with the diluent. […] An aliquot (5 ml) was diluted to 10 ml with the diluent. The blank preparation and sample preparation were injected to the HPLC system by using the chromatographic conditions as mentioned in example 8. • Basic hydrolysis—blank preparation: Sodium hydroxide (5 ml, 0.01M NaOH) was diluted to 10 ml with the diluent. […] An aliquot (5 ml) was diluted to 10 ml with diluent. […] An aliquot (5 ml) was diluted to 10 ml with the diluent. The blank and sample preparations were injected to the HPLC system using the chromatographic conditions as detailed in example 8. • Photolysis—blank preparation: The diluent (50 ml) was mixed under UV light for 48 hours. […] The blank preparation and sample preparation were injected to the HPLC system using the chromatographic conditions as mentioned in example 8.

[3] = Solution stability of 5-azacytidine in water; type: physicochemical; details: for Area (%) at RRT 1.00 (5-azacytidine) / Area (%) of peak at RRT 0.63 / Area (%) of peak at RRT 2.01 / Total impurities by % area / Area (%) of peak at RRT 1.70: water, about 1.65 mg/ml
Procedure: as §1, §2
Samples were withdrawn from the flask every consecutive hour and injected to the HPLC system.

[4] = cited from earlier work
[5] = accelerated conditions (40 ± 2° C., 75 ± 5% RH), 48 hours
[6] = exposure to ambient conditions, visible light 48 hours
[7] = exposure to elevated temperature (105° C.), 48 hours
[8] = Acidic: 0.01M HCl, room temperature, about 1 hour
[9] = Basic: 0.01M NaOH, room temperature, about 1 hour
[10] = Oxidation: 10% hydrogen peroxide solution, room temperature, about 1 hour
[11] = Photolysis: in the diluent, UV light 48 hours

## Nc1ncn([C@@H]2O[C@H](CO)[C@@H](O)[C@H]2O)c(=O)n1 [5-azacytidine, 4-amino-1-β-D-ribofuranosyl-1,3,5-s-triazine-2(1H)-one]
[1]; solid state induced degradation
  FT-IR spectra changes: did not show any significant changes
[1]; solid state, Tables 7 and 8
  Stability in solid state (HPLC analysis): stable to heat and IJV light
[1]; solid state, exposed to an elevated temperature
  Change in color of the sample: slight change in color
[1]; [5]
  Area (%) at RRT 1.00 (5-azacytidine): 97.04%
  Area (%) of peak at RRT 0.63: 1.90%
  Area (%) of peak at RRT 2.01: 0.80%
  Area (%) of peak at RRT 2.05: 0.14%
  Total impurities (%): 2.96%
[1]; exposure to UV light, 48 hours
  Area (%) at RRT 1.00 (5-azacytidine): 96.64%
  Area (%) of peak at RRT 0.63: 1.66%
  Area (%) of peak at RRT 2.01: 1.35%
  Area (%) of peak at RRT 2.05: 0.24%
  Total impurities (%): 3.36%
[1]; [6]
  Area (%) at RRT 1.00 (5-azacytidine): 96.75%
  Area (%) of peak at RRT 0.63: 1.52%
  Area (%) of peak at RRT 2.01: 1.36%
  Area (%) of peak at RRT 2.05: 0.27%
  Total impurities (%): 3.25%
[1]; [7]
  Area (%) at RRT 1.00 (5-azacytidine): 96.61%
  Area (%) of peak at RRT 0.63: 2.00%
  Area (%) of peak at RRT 2.01: 1.01%
  Area (%) of peak at RRT 2.05: 0.17%
  Total impurities (%): 3.39%
[1]; protected sample (storage)
  Area (%) at RRT 1.00 (5-azacytidine): 96.72%
  Area (%) of peak at RRT 0.63: 1.55%
  Area (%) of peak at RRT 2.01: 1.37%
  Area (%) of peak at RRT 2.05: 0.24%
  Total impurities (%): 3.28%
[2]; [8]
  Area (%) at RRT 1.00 (5-azacytidine): 71.96%
  Area (%) of peak at RRT 0.33: 0.17%
  Area (%) of peak at RRT 0.63: 21.1%
  Area (%) of peak at RRT 1.18: 5.35%
  Area (%) of peak at RRT 1.65: 0.14%
  Area (%) of peak at RRT 2.01: 1.10%
  Total impurities (%): 28.04%
[2]; [9]
  Area (%) at RRT 1.00 (5-azacytidine): 3.38%
  Area (%) of peak at RRT 0.33: 89.92%
  Area (%) of peak at RRT 0.42: 3.97%
  Total impurities (%): 96.62%
[2]; [10]
  Area (%) at RRT 1.00 (5-azacytidine): 97.18%
  Area (%) of peak at RRT 0.33: 0.84%
  Area (%) of peak at RRT 0.42: 0.06%
  Area (%) of peak at RRT 0.63: 0.23%
  Area (%) of peak at RRT 2.01: 1.62%
  Total impurities (%): 2.82%
[2]; [11]
  Area (%) at RRT 1.00 (5-azacytidine): 61.64%
  Area (%) of peak at RRT 0.33: 0.85%
  Area (%) of peak at RRT 0.39: 0.11%
  Area (%) of peak at RRT 0.42: 0.20%
  Area (%) of peak at RRT 0.63: 35.24%
  Area (%) of peak at RRT 1.18: 0.46%
  Area (%) of peak at RRT 1.65: 0.39%
  Area (%) of peak at RRT 2.01: 0.86%
  Area (%) of peak at RRT 2.05: 0.17%
  Total impurities (%): 38.36%
[2]; Storage (reference sample)
  Area (%) at RRT 1.00 (5-azacytidine): 96.72%
  Area (%) of peak at RRT 0.63: 1.55%
  Area (%) of peak at RRT 2.01: 1.37%
  Area (%) of peak at RRT 2.05: 0.24%
  Total impurities (%): 3.28%
[2]; liquid state, Table 9
  Degradation in liquid state (HPLC analysis): significant degradation
[3]; in water
  Solution stability in water: unstable in water over prolonged time periods
[3]; 0 hours
  Area (%) at RRT 1.00 (5-azacytidine): 97.47%
  Area (%) of peak at RRT 0.63: 0.64%
  Area (%) of peak at RRT 2.01: 1.59%
  Total impurities by % area: 2.53%
[3]; 1 hour
  Area (%) at RRT 1.00 (5-azacytidine): 95.97%
  Area (%) of peak at RRT 0.63: 2.16%
  Area (%) of peak at RRT 2.01: 1.57%
  Total impurities by % area: 4.03%
[3]; 4 hours
  Area (%) at RRT 1.00 (5-azacytidine): 91.38%
  Area (%) of peak at RRT 0.63: 6.86%
  Area (%) of peak at RRT 2.01: 1.46%
  Total impurities by % area: 8.62%
[3]; 8 hours
  Area (%) at RRT 1.00 (5-azacytidine): 83.61%
  Area (%) of peak at RRT 0.63: 14.68%
  Area (%) of peak at RRT 1.70: 0.23%
  Area (%) of peak at RRT 2.01: 1.36%
  Total impurities by % area: 16.39%
[3]; 12 hours
  Area (%) at RRT 1.00 (5-azacytidine): 77.01%
  Area (%) of peak at RRT 0.63: 21.28%
  Area (%) of peak at RRT 1.70: 0.35%
  Area (%) of peak at RRT 2.01: 1.25%
  Total impurities by % area: 22.99%
[4]; in 5% Tween 80 in water
  Solubility: sparingly soluble
[4]; in 5% dextrose in water
  Solubility: sparingly soluble
[4]; in N-methyl-2-pyrrolidone
  Solubility: sparingly soluble
[4]; in acetone
  Solubility: insoluble
[4]; in dimethylsulfoxide (DMSO)
  Solubility: soluble
[4]; in ethanol/water (50/50)
  Solubility: slightly soluble
[4]; in ethanol
  Solubility: insoluble
[4]; in methyl ethyl ketone
  Solubility: insoluble
[4]; in normal saline
  Solubility: sparingly soluble
[4]; in polyethylene glycol
  Solubility: slightly soluble
[4]; in propylene glycol
  Solubility: slightly soluble
[4]; in water saturated octanol
  Solubility: sparingly soluble
[4]; in water
  Solubility: sparingly soluble
